Laboratory results as given in patent US20240409935A1, “Atg8ylation coordinates stress granule formation and mTOR inactivation in response to lysosomal damage” (priority 2023, published 2024).

Legend:
Type in all cases: cell-based, human
[1] = test system: ATF4; assay: Immunoblot analysis of ATF4 in U2OS cells; conditions: 2 mM LLOMe, indicated time points
[2] = test system: PKR; assay: Immunoblot analysis of PKR (T446) phosphorylation in U2OS cells; conditions: 2 mM LLOMe for 30 min
Source text: The level of phosphorylation of eIF2α (S51) is quantified based on three independent experiments. […] Red masks, computer-identified G3BP1 puncta. […] Ctrl, control (untreated cells). Data, means±SEM; HCM: n≥3 (each experiment: 500 valid primary objects/cells per Well, ≥5 Well s/sample). *p<0.05, **p<0.01, ANOVA. See also FIG. 2S.

[3] = test system: mTOR; assay: Immunoblot analysis of S6K1 (T389) phosphorylation in HeLa cells; conditions: HeLa (WT) cells, 4 mM LLOMe for 30 min
[4] = test system: GABARAP; assay: Immunoblot analysis of GABARAP lipidation in U2OS cells; conditions: 2 mM LLOMe, indicated time points
[5] = test system: ALIX, PKR and PACT; assay: Co-IP analysis of interactions among FLAG-ALIX, PKR and PACT in HEK293T cells; conditions: 1 mM LLOMe for 30 min
Experimental: HEK293T cells expressing FLAG (control) or FLAG-ALIX Were treated with 1 mM LLOMe for 30 min. Cell lysates Were immunoprecipitated with anti-FLAG antibody and immunoblotted for indicated proteins. […] FL (full length); Bro1 (Bro1 domain); V domain; PRD (proline-rich domain). Numbers, residue positions. (ii) Schematic illustration of the Ca^2+/ALG-2-induced open conformation of ALIX. […] HEK293T cells expressing FLAG tagged ALIX mutants and Myc-PKR Were treated with 1 mM LLOMe for 30 min. Cell lysates Were immunoprecipitated with anti-GFP antibody and immunoblotted for indicated proteins. FIG. 12F Analysis of proteins associated with purified lysosomes (LysoIP; TMEM192-3×HA) from HEK293T cells transfected with scrambled siRNA as control (SCR), or ALIX siRNA for knockdown (ALIX^KD). Cells Were treated with 1 mM LLOMe for 30 min. FIG. 12G Schematic summary of the findings in FIGS. 5 and S5. One of three independent western Blot experiments shown. See also FIG. 1S1.

COC(=O)[C@H](CC(C)C)NC(=O)[C@@H](N)CC(C)C [LLOMe, L-leucyl-L-leucine methyl ester]
ATF4 expression [1]: increased ATF4 expression over time
PKR activation assessed by phosphorylation at Thr446 [2]: PKR was activated
pT389 S6K levels (mTOR activity) [3]: drop in pT389 S6K levels
GABARAP lipidation [4]: GABARAP was lipidated
interaction between FLAG-ALIX and endogenous PKR and PACT (co-IP) [5]: notably enhanced
